This is an account of results in ChEMBL document CHEMBL1201862, “PubChem BioAssay data set” (2004).

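Protocol summary: plate cells (96-well), add compound at 5 concentrations, incubate 48 h, interpolate endpoints linearly. At the GI50, growth is halved.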 Calls of active or inactive are those of the source. Rule as the data show it: active = GI50 up to about 1.1 µM and inactive = higher.

Among the test systems are RXF 393; SW-620; UACC-257; Hs-578T; OVCAR-4; SN12C; MDA-N; HCT-15; MOLT-4; MDA-MB-231; MDA-MB-435; SK-MEL-2; MCF7; SK-MEL-28; A549; CAKI-1; NCI-H23; NCI-H226; UACC-62; OVCAR-8.
What all share (experiment): growth of human tumour cells (NCI), 48 h

As to `C[C@]12C=CC(=O)C=C1[C@@H](F)C[C@H]1[C@@H]3CC[C@](O)(C(=O)CO)[C@@]3(C)C[C@H](O)[C@@]12F`, the GI50 with RXF 393 is > 85.5 µM (inactive); with SW-620, > 100 µM (inactive); in the test on UACC-257 it was > 100 µM (inactive); with Hs-578T, > 100 µM (inactive); in the test on OVCAR-4, > 100 µM (inactive); in the test with SN12C, > 100 µM (inactive). For the same compound, the GI50 in the test on MDA-N was > 100 µM (inactive); with HCT-15, above 100 µM; in the test with MOLT-4, > 100 µM (inactive); in the test with MDA-MB-231 it was > 100 µM (inactive); with MDA-MB-435, > 100 µM (inactive); in the test with SK-MEL-2 it was > 100 µM (inactive). Moreover, the GI50 in the test on MCF7 was > 100 µM (inactive); in the test with SK-MEL-28 it was > 100 µM (inactive); in the test on A549, > 100 µM (inactive); in the test on CAKI-1, > 100 µM (inactive); in the test on NCI-H23, > 100 µM (inactive); in the test with NCI-H226 it was 52.6 µM (inactive). Moreover, the GI50 in the test on UACC-62 and in the test on OVCAR-8 was > 100 µM (inactive) each time.
For the compound `c1ccc(-c2c[nH]c(SC(c3ccccc3)c3ccccc3)n2)cc1`, the GI50 was 15.8 µM (inactive) in the test on RXF 393; 27.6 µM (inactive) with SW-620; 18 µM (inactive) with UACC-257; 33.3 µM (inactive) with Hs-578T; 23.4 µM (inactive) in the test on OVCAR-4; 17.4 µM (inactive) in the test on SN12C. Besides, the GI50 in the test on MDA-N was 20.7 µM (inactive); in the test on HCT-15, 13.3 µM; with MOLT-4, 15.7 µM (inactive); in the test on MDA-MB-231, 58.6 µM (inactive); in the test on MDA-MB-435, 21.1 µM (inactive); in the test on SK-MEL-2, 16.9 µM (inactive). The GI50 with MCF7 is 20.3 µM (inactive); in the test with SK-MEL-28, 33.7 µM (inactive); in the test with A549, 21.9 µM (inactive); with CAKI-1, 13.8 µM (inactive); in the test with NCI-H23 it was 14.7 µM (inactive); with NCI-H226 it was 17.3 µM (inactive). The GI50 with UACC-62 is 14.2 µM (inactive); in the test with OVCAR-8 it was 19.6 µM (inactive).
On to `C=C(C)C(=O)O[C@@H]1C[C@@]2(C)O[C@@H]2C[C@H](O)/C(C)=C/[C@H]2OC(=O)C(=C)[C@@H]21`, for which the GI50 in the test on RXF 393 was 33.3 µM (inactive); with SW-620, 18.7 µM (inactive); in the test on UACC-257, > 100 µM (inactive); with Hs-578T, > 100 µM (inactive); with OVCAR-4 it was 19.9 µM (inactive); in the test with SN12C it was 36.6 µM (inactive). Besides, the GI50 in the test on MDA-N is 50 µM (inactive); in the test with HCT-15, 30.9 µM; in the test on MOLT-4, 28.8 µM (inactive); in the test with MDA-MB-231 it was > 100 µM (inactive); in the test on MDA-MB-435, 59.6 µM (inactive); in the test with SK-MEL-2, 49.1 µM (inactive). Also, the GI50 is 35.8 µM (inactive) in the test with MCF7; 22.4 µM (inactive) with SK-MEL-28; > 100 µM (inactive) with A549; 28.6 µM (inactive) in the test with CAKI-1; > 100 µM (inactive) with NCI-H23; > 100 µM (inactive) with NCI-H226. Besides, the GI50 with UACC-62 was 74.5 µM (inactive); in the test with OVCAR-8, 40.6 µM (inactive).
On to `COc1cc(C2S/C(=C/c3ccccc3)C(=O)N2c2ccc([N+](=O)[O-])cc2)cc(OC)c1OC` (stereo not given), for which the GI50 with RXF 393 is > 100 µM (inactive); in the test with SW-620 it was > 100 µM (inactive); in the test with UACC-257, 60.7 µM (inactive); in the test with Hs-578T, > 100 µM (inactive); in the test with OVCAR-4, 45.9 µM (inactive); in the test with SN12C, > 90.6 µM (inactive). Further, the GI50 is > 56.8 µM (inactive) in the test with MDA-N; 26.4 µM in the test with HCT-15; 47.3 µM (inactive) in the test with MOLT-4; > 100 µM (inactive) with MDA-MB-231; 18 µM (inactive) with MDA-MB-435; > 91.4 µM (inactive) with SK-MEL-2. Besides, the GI50 in the test with MCF7 was 58.3 µM (inactive); with SK-MEL-28 it was > 100 µM (inactive); in the test on A549 it was > 96.4 µM (inactive); in the test on CAKI-1 it was 97.1 µM (inactive); with NCI-H23, > 100 µM (inactive); in the test with NCI-H226 it was 58.9 µM (inactive). In addition, the values for the GI50 with UACC-62 and in the test on OVCAR-8 were 3.91 µM (inactive) and > 100 µM (inactive), respectively.
In the case of `CCOC(=O)C1=CNC(C(=O)OCC)C1c1cccn1-c1ccc(Cl)cc1[N+](=O)[O-]` (stereo not given), the GI50 in the test with RXF 393 is 14.6 µM (inactive); in the test on SW-620, 27.9 µM (inactive); in the test with UACC-257 it was 24.4 µM (inactive); in the test on Hs-578T it was 15.8 µM (inactive); in the test on OVCAR-4 it was 31.3 µM (inactive); in the test with SN12C, 18.2 µM (inactive). Moreover, the GI50 was 22 µM (inactive) in the test on MDA-N; 21.5 µM in the test on HCT-15; 22.1 µM (inactive) in the test with MOLT-4; 10 µM (inactive) in the test on MDA-MB-231; 21.5 µM (inactive) with MDA-MB-435; 15.4 µM (inactive) in the test on SK-MEL-2. In addition, the GI50 in the test on MCF7 is 20.6 µM (inactive); in the test on SK-MEL-28, 26.2 µM (inactive); with A549, 32.1 µM (inactive); with CAKI-1 it was 20 µM (inactive); in the test on NCI-H23, 36.6 µM (inactive); in the test on NCI-H226, 20.1 µM (inactive). Also, the GI50 is 15.7 µM (inactive) in the test on UACC-62 and 25.8 µM (inactive) with OVCAR-8.
`NCC(Cc1ccccc1)P(=O)(O)O` (stereo not given): the GI50 with RXF 393, in the test with SW-620, in the test with UACC-257, in the test on Hs-578T, with OVCAR-4 and with SN12C was > 100 µM (inactive) each time. The GI50 with MDA-N is > 100 µM (inactive); with HCT-15, above 100 µM; in the test with MOLT-4, > 100 µM (inactive); in the test on MDA-MB-231, > 100 µM (inactive); with MDA-MB-435 it was > 100 µM (inactive); in the test on SK-MEL-2, > 100 µM (inactive). Besides, the GI50 in the test with MCF7, in the test with SK-MEL-28, in the test with A549, in the test with CAKI-1, in the test on NCI-H23 and in the test on NCI-H226 was > 100 µM (inactive) each time. Besides, the GI50 with UACC-62 and with OVCAR-8 was > 100 µM (inactive) each time.
Regarding `CCC(=O)C(CCN1CCC2(CCCc3ccccc32)CC1)(c1ccccc1)c1ccccc1`, the GI50 with RXF 393 was 2 µM (inactive); in the test with SW-620 it was 2.87 µM (inactive); in the test on UACC-257, 2.05 µM (inactive); in the test on Hs-578T, 2.33 µM (inactive); in the test on OVCAR-4, 3.52 µM (inactive); with SN12C, 2.29 µM (inactive). The GI50 is 3.96 µM (inactive) with MDA-N; 2.55 µM with HCT-15; 1.41 µM (inactive) in the test on MOLT-4; 2.51 µM (inactive) in the test with MDA-MB-231; 3.49 µM (inactive) in the test on MDA-MB-435; 2 µM (inactive) in the test on SK-MEL-2. The GI50 was 2.86 µM (inactive) with MCF7; 4.65 µM (inactive) with SK-MEL-28; 3.63 µM (inactive) in the test on A549; 3.44 µM (inactive) in the test with CAKI-1; 2.15 µM (inactive) with NCI-H23; 2.05 µM (inactive) in the test with NCI-H226. In addition, the GI50 in the test with UACC-62 is 3.72 µM (inactive); with OVCAR-8, 3.66 µM (inactive).
On to `C=C(C)C(CC=C(C)C)Cc1c(O)cc(OC)c2c1OC(c1ccc(O)cc1O)C(O)C2=O` (stereo not given), for which the GI50 in the test on RXF 393 is 19 µM (inactive); in the test on SW-620, 16.6 µM (inactive); in the test on UACC-257, 17.7 µM (inactive); in the test with Hs-578T, 17.2 µM (inactive); in the test with OVCAR-4, 16.3 µM (inactive); in the test on SN12C it was 20.5 µM (inactive). Moreover, the GI50 was 14.9 µM (inactive) in the test with MDA-N; 17 µM in the test with HCT-15; > 100 µM (inactive) with MOLT-4; 18.6 µM (inactive) with MDA-MB-231; 16.9 µM (inactive) with MDA-MB-435; 19.5 µM (inactive) with SK-MEL-2. Further, the GI50 in the test on MCF7 is 13.2 µM (inactive); with SK-MEL-28, 21.1 µM (inactive); with A549, 19.5 µM (inactive); in the test on CAKI-1 it was 13.6 µM (inactive); with NCI-H23, 17.9 µM (inactive); in the test with NCI-H226, 18.3 µM (inactive). For the same compound, the figures for the GI50 with UACC-62 and with OVCAR-8 were 16.2 µM (inactive) and 17 µM (inactive), respectively.
In the case of `Cc1ccc(S(=O)(=O)N/C(=N\O)Nc2ccc(Cl)c(Cl)c2)cc1`, the GI50 with RXF 393 was 9.84 µM (inactive); in the test on SW-620, 11.2 µM (inactive); in the test with UACC-257, 4.68 µM (inactive); with Hs-578T it was 3.73 µM (inactive); in the test with OVCAR-4 it was 6.46 µM (inactive); in the test with SN12C, 2.12 µM (inactive). Further, the GI50 with MDA-N is 3.57 µM (inactive); with HCT-15, 6.67 µM; in the test with MOLT-4 it was 1.98 µM (inactive); in the test on MDA-MB-231, 9.98 µM (inactive); in the test on MDA-MB-435 it was 3.48 µM (inactive); with SK-MEL-2 it was 10.2 µM (inactive). Moreover, the GI50 with MCF7 is 17.5 µM (inactive); in the test with SK-MEL-28 it was 3.34 µM (inactive); in the test with A549, 13.3 µM (inactive); in the test with CAKI-1, 5.41 µM (inactive); in the test with NCI-H23, 15.7 µM (inactive); in the test with NCI-H226 it was 17.1 µM (inactive). Besides, the GI50 with UACC-62 was 11.7 µM (inactive); in the test with OVCAR-8 it was 8.04 µM (inactive).
On to `NC(=O)NC(=O)c1cccc(NC(=O)CBr)c1`, for which the GI50 in the test on RXF 393 was < 0.019 µM (active); in the test with SW-620, < 0.01 µM (active); in the test with UACC-257 it was < 0.0311 µM (active); in the test on Hs-578T, < 0.0206 µM (active); with OVCAR-4 it was 0.0706 µM (active); in the test with SN12C, < 0.0206 µM (active). In addition, the GI50 with MDA-N was < 0.0134 µM (active); in the test on HCT-15 it was below 0.0161 µM; in the test with MOLT-4 it was < 0.01 µM (active); with MDA-MB-231, 0.0631 µM (active); in the test with MDA-MB-435, < 0.0143 µM (active); in the test with SK-MEL-2 it was 0.0286 µM (active). Besides, the GI50 in the test with MCF7 is < 0.01 µM (active); with SK-MEL-28, 1.44 µM (inactive); in the test on A549, 0.912 µM (active); in the test on CAKI-1, < 0.01 µM (active); with NCI-H23, < 0.0195 µM (active); in the test with NCI-H226, < 0.0188 µM (active). In addition, the GI50 with UACC-62 is < 0.0175 µM (active); in the test on OVCAR-8, < 0.0172 µM (active).
